Experimental findings from patent publication US12398154B2, “Azaquinazoline pan-KRas inhibitors” (Mirati Therapeutics, Inc., priority 2020, dated 2025) are described below.

Test [1] concerns the target KRas G12S (Homo sapiens, UniProt P01116, G12S). The test can be described thus: biochemical.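 Also: TR-FRET displacement binding to KRas, read after one hour incubation at room temperature, IC50 from four-parameter fit of percent of control.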
Procedure: (§2) The ability of a compound to bind to KRas was measured using a TR-FRET displacement assay. […] After a 60-minute incubation at room temperature, the reaction was measured using a BMG LABTECH CLARIO star Plus via TR-FRET. […] The POC values were fit to a 4-parameter IC50 equation and the IC50 value reported.
The test system of test [2] is phospho-ERK in NCI-H727 (G12V) cells. The test can be described thus: Inhibition of KRas-mediated phosphorylation of ERK (in-cell western). The test is classed as cell-based. The settings on record: Homo sapiens, NCI-H727, 3 h, 3 hours compound, phospho-ERK normalized to GAPDH. In a few lines: (§1)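 After a 3-hour incubation with diluted compound in 0.5% DMSO, cells are fixed, permeabilized and stained overnight at 4° C for phosphorylated ERK and GAPDH.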

In test [3] the test system is phospho-ERK in AsPC-1 (G12D) cells. The test is described as above. The class given is cell-based. The settings on record: Homo sapiens, ASPC1, 3 h, 3 hours compound, phospho-ERK normalized to GAPDH. An outline of the steps: as §1
For test [4], the system named is phospho-ERK in NCI-H460 (Q61H) cells. Described as above. The test is classed as cell-based. The settings on record: Homo sapiens, NCI-H460, 3 h, 3 hours compound, phospho-ERK normalized to GAPDH. In a few lines: as §1
The target in test [5] is KRas G12C (Homo sapiens, UniProt P01116, G12C). The experiment in a line: biochemical.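 Also: binding to KRas assessed by TR-FRET displacement after one hour incubation at room temperature, potency fitted from percent-of-control values.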
Procedure: as §2
Test [6] has as its target KRas G12V (Homo sapiens, UniProt P01116, G12V). The experiment in a line: biochemical.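 Also: KRas binding measured by TR-FRET displacement at room temperature, IC50 fitted from percent of control values.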
Procedure: as §2
The target in test [7] is KRas G12R (Homo sapiens, UniProt P01116, G12R). The experiment in a line: biochemical.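 Also: TR-FRET displacement assay of compound binding to KRas, read after one hour at room temperature, potency from a four-parameter fit of percent-of-control values.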
Procedure: as §2
The target in test [8] is T1, KRas G13D (Homo sapiens, UniProt P01116, G13D).
T1 construct: Biotinylated KRas (corresponding to amino acids 1-169, produced at Accelegan Inc.); biotin (biotinylated); purchased Accelegan Inc
The test can be described thus: KRas binding assay (TR-FRET displacement).
Procedure: as §2

For test [9], the target named is T2, KRas Q61H (Homo sapiens, UniProt P01116, Q61H).
T2 construct: Biotinylated KRas (corresponding to amino acids 1-169, produced at Accelegan Inc.); biotin (biotinylated); purchased Accelegan Inc
The experiment in a line: KRas binding assay (TR-FRET displacement).
Procedure: as §2

In test [10] the target is KRas G12D (Homo sapiens, UniProt P01116, G12D). The test can be described thus: biochemical.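 Also: TR-FRET displacement binding assay on KRas, read after a one-hour incubation at room temperature, IC50 fitted from percent-of-control values.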
Procedure: as §2
Test [11] concerns the target KRas WT (Homo sapiens, UniProt P01116). The experiment in a line: biochemical.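 Also: binding to KRas read as TR-FRET displacement after a one-hour room-temperature incubation, IC50 derived from percent-of-control values.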
Procedure: as §2
In test [12] the target is KRas G12A (Homo sapiens, UniProt P01116, G12A). The test can be described thus: biochemical.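 Also: binding to KRas measured by TR-FRET displacement after one hour at room temperature, IC50 from a four-parameter fit of percent-of-control values.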
Procedure: as §2
The subject of test [13] is pERK in ASPC1 cells. The experiment in a line: Inhibition of KRas phosphorylation of ERK (Cisbio HTRF pERK assay). Conditions: Homo sapiens, ASPC1, read-out: Inhibition (HTRF IC50) of KRas-mediated Phosphorylation of ERK, AsPC-1. In general terms: In TR-FRET formats the signal depends on donor and acceptor labels being close together.
The test system of test [14] is pERK in A549 cells. The description is as above. Conditions: Homo sapiens, A549, read-out: Inhibition (HTRF IC50) of KRas-mediated Phosphorylation of ERK, A549.
For test [15], the system named is pERK in PSN1 cells. The test is described as above. Conditions: Homo sapiens, PSN1, 3 h, read-out: Inhibition (HTRF IC50) of KRas-mediated Phosphorylation of ERK, PSN1.
Test [16] relates to pERK in HCT116 cells. The description is as above. Conditions: Homo sapiens, HCT-116, read-out: Inhibition (HTRF IC50) of KRas-mediated Phosphorylation of ERK, HCT116.
Test [17] concerns pERK in MKN1 cells. Described as above. The settings on record: Homo sapiens, MKN-1, 3 h, read-out: Inhibition (HTRF IC50) of KRas-mediated Phosphorylation of ERK, MKN1.
Test [18] deals with pERK in H727 cells. The description is as above. The settings on record: Homo sapiens, NCI-H727, read-out: Inhibition (HTRF IC50) of KRas-mediated Phosphorylation of ERK, H727.
Test [19] deals with pERK in H460 cells. Described as above. Conditions: Homo sapiens, NCI-H460, read-out: Inhibition (HTRF IC50) of KRas-mediated Phosphorylation of ERK, H460.

Structures are written as SMILES.

Broadly, the IC50 is the midpoint of a concentration-inhibition curve.

KRas G12R, sequence (P01116 1-169 isoform P01116-2 G12R): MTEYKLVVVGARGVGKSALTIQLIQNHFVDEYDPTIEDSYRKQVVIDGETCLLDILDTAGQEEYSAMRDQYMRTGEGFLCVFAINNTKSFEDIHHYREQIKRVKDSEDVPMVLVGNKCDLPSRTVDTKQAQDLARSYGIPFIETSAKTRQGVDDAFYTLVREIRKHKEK
KRas G12V, sequence (P01116 1-169 isoform P01116-2 G12V): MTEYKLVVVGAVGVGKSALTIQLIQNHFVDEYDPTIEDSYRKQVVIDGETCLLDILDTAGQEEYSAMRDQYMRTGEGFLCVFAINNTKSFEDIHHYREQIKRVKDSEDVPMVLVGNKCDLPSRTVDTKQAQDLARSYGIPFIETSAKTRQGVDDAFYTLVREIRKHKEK
KRas G12D, sequence (P01116 1-169 isoform P01116-2 G12D): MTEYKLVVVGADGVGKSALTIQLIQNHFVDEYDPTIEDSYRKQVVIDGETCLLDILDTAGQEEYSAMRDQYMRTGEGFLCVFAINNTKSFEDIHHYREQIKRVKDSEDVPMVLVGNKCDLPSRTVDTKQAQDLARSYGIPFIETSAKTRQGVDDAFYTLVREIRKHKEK
KRas G12A, sequence (P01116 1-169 isoform P01116-2 G12A): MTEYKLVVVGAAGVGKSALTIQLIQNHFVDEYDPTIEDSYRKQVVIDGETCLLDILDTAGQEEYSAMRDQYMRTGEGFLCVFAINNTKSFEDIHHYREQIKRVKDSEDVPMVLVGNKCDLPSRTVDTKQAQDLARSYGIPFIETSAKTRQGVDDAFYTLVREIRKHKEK
KRas G12S, sequence (P01116 1-169 isoform P01116-2 G12S): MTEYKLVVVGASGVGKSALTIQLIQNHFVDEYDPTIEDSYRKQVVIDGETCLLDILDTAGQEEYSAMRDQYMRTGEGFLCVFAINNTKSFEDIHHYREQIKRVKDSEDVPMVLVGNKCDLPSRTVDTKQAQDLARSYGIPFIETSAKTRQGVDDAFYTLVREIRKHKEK
KRas WT, sequence (P01116 1-169 isoform P01116-2): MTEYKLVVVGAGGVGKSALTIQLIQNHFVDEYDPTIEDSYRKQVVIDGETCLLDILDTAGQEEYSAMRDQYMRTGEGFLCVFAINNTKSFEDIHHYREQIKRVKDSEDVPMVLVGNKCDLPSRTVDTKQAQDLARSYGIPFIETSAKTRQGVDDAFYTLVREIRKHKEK
KRas G12C, sequence (P01116 1-169 isoform P01116-2 G12C): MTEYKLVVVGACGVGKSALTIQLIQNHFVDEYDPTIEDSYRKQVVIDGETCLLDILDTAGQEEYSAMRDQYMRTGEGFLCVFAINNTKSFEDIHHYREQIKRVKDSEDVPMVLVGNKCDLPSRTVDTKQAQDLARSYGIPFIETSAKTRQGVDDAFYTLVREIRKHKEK
T1 sequence (P01116 1-169 isoform P01116-2 G13D): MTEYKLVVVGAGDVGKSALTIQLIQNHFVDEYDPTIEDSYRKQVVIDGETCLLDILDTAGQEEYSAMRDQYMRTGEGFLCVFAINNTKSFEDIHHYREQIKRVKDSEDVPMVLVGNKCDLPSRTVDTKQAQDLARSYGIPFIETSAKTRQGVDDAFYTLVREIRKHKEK
T2 sequence (P01116 1-169 isoform P01116-2 Q61H): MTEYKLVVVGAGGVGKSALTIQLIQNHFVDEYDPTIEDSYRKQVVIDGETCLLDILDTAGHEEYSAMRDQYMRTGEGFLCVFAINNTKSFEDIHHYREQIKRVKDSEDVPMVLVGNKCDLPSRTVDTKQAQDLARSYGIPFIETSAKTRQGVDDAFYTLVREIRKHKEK

For the molecule `C[C@H]1C[C@H]1c1c(Cl)cc2[nH]ncc2c1-c1ncc2c(N3CCC[C@@](C)(O)C3)nc(OC[C@@]34CCCN3C[C@H](F)C4)nc2c1F` (racemic) [Example 153, (3R)-1-(7-(6-chloro-5-(2-methylcyclopropyl)-1H-indazol-4-yl)-8-fluoro-2-(((2R,7aS)-2-fluorotetrahydro-1H-pyrrolizin-7a(5H)-yl)methoxy)pyrido[4,3-d]pyrimidin-4-yl)-3-methylpiperidin-3-ol], the IC50 in [1] came out at 7 nM; in test [2], 500 nM; in test [3], 233 nM; in test [4], 306 nM; in test [5], 7 nM; in test [6] it was 5 nM. In addition, the IC50 turned out to be 10 nM in test [7]; 8 nM in test [8]; 7 nM in test [9]; 6 nM in test [10]; 6 nM in test [11]; 7 nM in [12].
With `CCc1c(F)ccc2cc(O)cc(-c3ncc4c(N5CCC[C@@](C)(O)C5)nc(OC[C@@]56CCCN5C[C@H](F)C6)nc4c3F)c12` [Example 5], the figures for the IC50 in [13], in test [14] and in test [15] were 2 nM, 2 nM and 364 nM, respectively.
As to `CCc1c(F)ccc2cc(O)cc(-c3ncc4c(N5CCCCC(S(C)(=O)=O)C5)nc(OC[C@@]56CCCN5C[C@H](F)C6)nc4c3F)c12` (stereo partly drawn) [Example 308, 5-ethyl-6-fluoro-4-(8-fluoro-2-(((2R,7aS)-2-fluorohexahydro-1H-pyrrolizin-7a-yl)methoxy)-4-(3-(methylsulfonyl)azepan-1-yl)pyrido[4,3-d]pyrimidin-7-yl)naphthalen-2-ol], the IC50 is 284 nM in [16]; 627 nM in test [2]; 489 nM in test [3]; 372 nM in test [4]; 40 nM in test [17]; 4 nM in test [6]. The IC50 was 278 nM in test [18]; 155 nM in test [13]; 10 nM in test [7]; 6 nM in test [10]; at least 10000 nM in test [15].
In the case of `CCc1c(F)ccc2cc(O)cc(-c3ncc4c(N5CCCC6(CCC6O)C5)nc(OC[C@@]56CCCN5C[C@H](F)C6)nc4c3F)c12` (stereo partly drawn) [Example 351, 6-(7-(8-ethyl-7-fluoro-3-hydroxynaphthalen-1-yl)-8-fluoro-2-(((2R,7aS)-2-fluorohexahydro-1H-pyrrolizin-7a-yl)methoxy)pyrido[4,3-d]pyrimidin-4-yl)-6-azaspiro[3.5]nonan-1-ol], the IC50 was determined as 346 nM in test [16]; 48 nM in test [17]; 15 nM in [6]; 551 nM in test [18]; 228 nM in test [13]; 182 nM in test [19]. In addition, the IC50 came to 11 nM in [7], 185 nM in test [14], 13 nM in test [10] and 7180 nM in test [15].
With `CN(C)CC1(COc2nc(N3CCCC4(CNS(=O)(=O)N4)C3)c3cnc(-c4cc(O)cc5ccc(F)c(Cl)c45)c(F)c3n2)CC1` (centres unmarked) [Example 428, 7-(7-(8-chloro-7-fluoro-3-hydroxynaphthalen-1-yl)-2-((1-((dimethylamino)methyl)cyclopropyl)methoxy)-8-fluoropyrido[4,3-d]pyrimidin-4-yl)-2-thia-1,3,7-triazaspiro[4.5]decane 2,2-dioxide], the IC50 in test [16] is 896 nM; in test [17], 28 nM; in test [6] it was at most 2 nM; in [18], 425 nM; in [13], 339 nM; in test [7], at most 2 nM. Further, the IC50 in [14] was 183 nM; in [10], at most 2 nM; in test [15], 3280 nM.
On to `O=C1NCC2(CCCN(c3nc(OC[C@@]45CCCN4C[C@H](F)C5)nc4c(F)c(-c5cc(O)cc6ccc(F)c(F)c56)ncc34)C2)N1` (stereo partly drawn) [Example 445, 7-(7-(7,8-difluoro-3-hydroxynaphthalen-1-yl)-8-fluoro-2-(((2R,7aS)-2-fluorohexahydro-1H-pyrrolizin-7a-yl)methoxy)pyrido[4,3-d]pyrimidin-4-yl)-1,3,7-triazaspiro[4.5]decan-2-one], for which the IC50 in [2] is 2930 nM; in [3] it was 1620 nM; in [4] it was 1190 nM; in test [17] it was 8200 nM; in [6] it was at most 2 nM; in test [7], at most 2 nM. Also, the IC50 is 4 nM in test [10] and at least 10000 nM in test [15].
On to `O=C1CC2(CCCN(c3nc(OC[C@@]45CCCN4C[C@H](F)C5)nc4c(F)c(-c5cc(O)cc6ccc(F)c(F)c56)ncc34)C2)CN1` (stereo partly drawn) [Example 446, 7-(7-(7,8-difluoro-3-hydroxynaphthalen-1-yl)-8-fluoro-2-(((2R,7aS)-2-fluorohexahydro-1H-pyrrolizin-7a-yl)methoxy)pyrido[4,3-d]pyrimidin-4-yl)-2,7-diazaspiro[4.5]decan-3-one], for which the IC50 is 2500 nM in test [2]; 3670 nM in test [3]; 2190 nM in test [4]; 786 nM in test [17]; at most 2 nM in [6]; 4 nM in [7]. The values for the IC50 in [10] and in test [15] were 4 nM and at least 10000 nM, respectively.
With `Cc1cc(N)nc(-c2ncc3c(N4CCCC(C)(O)C4)nc(OC[C@@]45CCCN4C[C@H](F)C5)nc3c2F)c1C(F)(F)F` (stereo partly drawn) [Example 459, 1-(7-(6-amino-4-methyl-3-(trifluoromethyl)pyridin-2-yl)-8-fluoro-2-(((2R,7aS)-2-fluorohexahydro-1H-pyrrolizin-7a-yl)methoxy)pyrido[4,3-d]pyrimidin-4-yl)-3-methylpiperidin-3-ol], the IC50 was 821 nM in test [1]; at least 10000 nM in test [2]; 9940 nM in test [3]; at least 10000 nM in [4]; 822 nM in test [5]; 766 nM in [6]. Also, the IC50 in test [7] was determined as 1010 nM; in [10] it was 537 nM; in [11] it was 688 nM; in test [12], 815 nM.
As to `CCc1c(F)ccc2cc(O)cc(-c3ncc4c(N5CC6C(=O)NC(=O)C6(C)C5)nc(OC[C@@]56CCCN5C[C@H](F)C6)nc4c3F)c12` (stereo partly drawn) [Example 482, 5-(7-(8-ethyl-7-fluoro-3-hydroxynaphthalen-1-yl)-8-fluoro-2-(((2R,7aS)-2-fluorohexahydro-1H-pyrrolizin-7a-yl)methoxy)pyrido[4,3-d]pyrimidin-4-yl)-3a-methyltetrahydropyrrolo[3,4-c]pyrrole-1,3(2H,3aH)-dione], the IC50 in [17] is 26 nM; in test [6], at most 2 nM; in test [18], 128 nM; in [13], 546 nM; in [19], 124 nM; in [7], 3 nM. For the same molecule, the values for the IC50 in test [14], in test [10] and in test [15] were 390 nM, at most 2 nM and at least 10000 nM, respectively.
